Laboratory results reported in patent publication US20240132521A1, “COMPOUNDS AND METHODS FOR MODULATING HER2” (Iambic Therapeutics, Inc., priority 2022, published 2024).
Where a name gives a salt, the structure may show the parent alone. Read-outs that look alike come from different tables or passages of the source.

Columns and labels:
Assay type in all cases: cell-based
[1] = target: BaF3_EGFRWT cells (Homo sapiens, UniProt P00533); assay: Cell growth inhibition assay (CellTiterGlo), BaF3_EGFRWT
[2] = target: BaF3_HER2WT cells (Homo sapiens, UniProt P04626); assay: Cell growth inhibition assay (CellTiterGlo), BaF3_HER2WT
[3] = target: BaF3_HER2YVMA cells (Homo sapiens, UniProt P04626, DUP772-775, cells depend on it); assay: Cell growth inhibition assay (CellTiterGlo), BaF3_HER2YVMA
[4] = 3-day treatment, CellTiterGlo, read-out: Cell growth inhibition activity, EGFR WT
[5] = 3-day treatment, CellTiterGlo, read-out: Cell growth inhibition activity, HER2 WT
[6] = cell growth inhibition, 3 days treatment, read-out: HER2 WT IC50
[7] = cell growth inhibition, 80 ng/mL EGF, 3 days treatment, read-out: EGFR WT IC50
[8] = cell growth inhibition, 3 days treatment, read-out: HER2 - YVMA IC50

Sequence of BaF3_HER2YVMA cells (P04626 with tags, fused parts or gaps DUP772-775): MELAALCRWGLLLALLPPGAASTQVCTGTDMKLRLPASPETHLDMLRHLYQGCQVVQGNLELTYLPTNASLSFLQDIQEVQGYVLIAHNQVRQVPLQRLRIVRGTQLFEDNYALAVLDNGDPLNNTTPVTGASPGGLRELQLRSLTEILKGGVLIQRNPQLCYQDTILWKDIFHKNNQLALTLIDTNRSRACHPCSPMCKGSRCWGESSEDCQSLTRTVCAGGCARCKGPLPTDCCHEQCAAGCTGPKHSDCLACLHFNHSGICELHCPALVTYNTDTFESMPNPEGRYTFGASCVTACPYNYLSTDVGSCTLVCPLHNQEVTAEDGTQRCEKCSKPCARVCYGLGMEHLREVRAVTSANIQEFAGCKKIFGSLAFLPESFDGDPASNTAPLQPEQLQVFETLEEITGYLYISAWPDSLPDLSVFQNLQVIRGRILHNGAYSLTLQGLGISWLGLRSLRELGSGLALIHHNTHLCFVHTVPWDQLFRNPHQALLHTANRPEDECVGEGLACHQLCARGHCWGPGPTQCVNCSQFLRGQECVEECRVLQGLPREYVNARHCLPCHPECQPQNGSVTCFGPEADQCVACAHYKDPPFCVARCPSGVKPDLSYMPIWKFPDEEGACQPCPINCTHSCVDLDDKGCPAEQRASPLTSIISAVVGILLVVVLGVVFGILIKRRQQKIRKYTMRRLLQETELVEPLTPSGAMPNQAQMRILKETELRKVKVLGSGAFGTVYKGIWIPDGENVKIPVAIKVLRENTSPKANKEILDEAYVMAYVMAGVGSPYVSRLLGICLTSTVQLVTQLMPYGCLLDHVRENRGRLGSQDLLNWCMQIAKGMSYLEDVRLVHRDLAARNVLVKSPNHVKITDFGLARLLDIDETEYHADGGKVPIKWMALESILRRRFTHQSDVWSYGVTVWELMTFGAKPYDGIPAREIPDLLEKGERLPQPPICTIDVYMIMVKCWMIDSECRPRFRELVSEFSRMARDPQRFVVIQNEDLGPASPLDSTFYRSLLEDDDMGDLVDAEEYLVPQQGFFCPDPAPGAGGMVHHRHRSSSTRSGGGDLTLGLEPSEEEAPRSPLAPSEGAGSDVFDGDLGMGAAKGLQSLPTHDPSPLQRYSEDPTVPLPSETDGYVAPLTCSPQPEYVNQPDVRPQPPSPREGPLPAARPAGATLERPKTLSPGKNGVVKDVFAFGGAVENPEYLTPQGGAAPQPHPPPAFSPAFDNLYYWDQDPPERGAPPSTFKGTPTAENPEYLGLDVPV
Sequence of BaF3_HER2WT cells (P04626 whole entry, change not shown): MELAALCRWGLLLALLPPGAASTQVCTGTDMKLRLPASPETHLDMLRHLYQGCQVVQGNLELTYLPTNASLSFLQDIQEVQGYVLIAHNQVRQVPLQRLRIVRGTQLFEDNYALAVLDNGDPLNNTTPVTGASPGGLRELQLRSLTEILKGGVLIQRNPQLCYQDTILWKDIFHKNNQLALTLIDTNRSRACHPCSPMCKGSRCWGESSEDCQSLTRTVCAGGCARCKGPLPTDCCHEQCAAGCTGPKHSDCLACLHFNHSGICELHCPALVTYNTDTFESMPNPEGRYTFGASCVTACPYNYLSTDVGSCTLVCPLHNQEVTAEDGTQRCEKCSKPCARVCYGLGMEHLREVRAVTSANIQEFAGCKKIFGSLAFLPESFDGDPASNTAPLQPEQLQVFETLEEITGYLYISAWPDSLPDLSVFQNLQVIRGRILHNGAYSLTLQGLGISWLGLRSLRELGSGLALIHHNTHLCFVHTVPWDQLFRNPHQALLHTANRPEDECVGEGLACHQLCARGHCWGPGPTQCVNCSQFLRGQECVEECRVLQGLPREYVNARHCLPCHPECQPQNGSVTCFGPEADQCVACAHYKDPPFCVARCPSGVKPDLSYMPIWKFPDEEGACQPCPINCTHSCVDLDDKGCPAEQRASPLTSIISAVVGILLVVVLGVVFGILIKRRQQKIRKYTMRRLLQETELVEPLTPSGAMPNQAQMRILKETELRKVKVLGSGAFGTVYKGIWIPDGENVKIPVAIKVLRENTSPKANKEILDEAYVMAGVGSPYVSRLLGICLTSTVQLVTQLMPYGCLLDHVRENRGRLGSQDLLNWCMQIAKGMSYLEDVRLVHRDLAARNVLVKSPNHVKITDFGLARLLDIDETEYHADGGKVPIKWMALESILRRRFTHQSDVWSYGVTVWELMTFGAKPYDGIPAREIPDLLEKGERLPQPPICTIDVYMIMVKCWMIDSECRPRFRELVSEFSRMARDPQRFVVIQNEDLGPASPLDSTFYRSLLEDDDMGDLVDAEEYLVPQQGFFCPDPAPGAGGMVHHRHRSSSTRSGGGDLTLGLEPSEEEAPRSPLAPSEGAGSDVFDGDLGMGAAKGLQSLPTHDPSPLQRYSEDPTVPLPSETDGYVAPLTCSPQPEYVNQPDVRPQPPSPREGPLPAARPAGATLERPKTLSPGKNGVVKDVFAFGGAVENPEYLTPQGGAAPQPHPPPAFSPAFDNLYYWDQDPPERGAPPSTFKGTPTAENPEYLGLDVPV
Sequence of BaF3_EGFRWT cells (P00533 whole entry, change not shown): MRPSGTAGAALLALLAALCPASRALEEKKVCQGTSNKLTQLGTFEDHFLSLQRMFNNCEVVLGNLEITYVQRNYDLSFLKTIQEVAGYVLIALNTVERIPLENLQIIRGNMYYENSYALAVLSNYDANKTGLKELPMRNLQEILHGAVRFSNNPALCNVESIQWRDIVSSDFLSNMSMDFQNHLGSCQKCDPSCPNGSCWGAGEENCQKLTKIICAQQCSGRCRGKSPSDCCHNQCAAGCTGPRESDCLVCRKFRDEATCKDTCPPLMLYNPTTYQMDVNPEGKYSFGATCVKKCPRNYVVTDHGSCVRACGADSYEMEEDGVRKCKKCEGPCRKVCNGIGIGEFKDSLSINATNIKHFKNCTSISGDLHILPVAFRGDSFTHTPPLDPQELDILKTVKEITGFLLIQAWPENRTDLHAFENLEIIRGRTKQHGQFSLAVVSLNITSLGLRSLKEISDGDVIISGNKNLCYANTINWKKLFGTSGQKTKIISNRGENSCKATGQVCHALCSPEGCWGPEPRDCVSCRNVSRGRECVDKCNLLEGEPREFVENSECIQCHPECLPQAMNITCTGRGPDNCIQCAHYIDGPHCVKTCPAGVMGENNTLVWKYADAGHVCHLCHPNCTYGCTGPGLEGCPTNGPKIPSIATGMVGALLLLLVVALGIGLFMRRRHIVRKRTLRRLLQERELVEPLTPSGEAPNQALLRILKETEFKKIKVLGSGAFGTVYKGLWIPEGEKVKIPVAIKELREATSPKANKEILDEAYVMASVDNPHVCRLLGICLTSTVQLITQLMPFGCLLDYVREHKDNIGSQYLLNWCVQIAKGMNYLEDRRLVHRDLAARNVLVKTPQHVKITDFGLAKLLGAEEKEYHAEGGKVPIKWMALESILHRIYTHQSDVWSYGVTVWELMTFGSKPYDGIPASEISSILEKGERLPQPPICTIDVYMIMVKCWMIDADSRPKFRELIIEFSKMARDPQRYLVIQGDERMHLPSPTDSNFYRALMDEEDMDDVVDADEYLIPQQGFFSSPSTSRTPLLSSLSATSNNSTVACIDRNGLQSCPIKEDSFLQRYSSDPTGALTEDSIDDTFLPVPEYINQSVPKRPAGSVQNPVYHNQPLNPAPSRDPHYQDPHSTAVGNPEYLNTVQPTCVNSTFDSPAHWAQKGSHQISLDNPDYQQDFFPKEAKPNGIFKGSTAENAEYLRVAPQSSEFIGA

GI50 [1, 4] [nM]	GI50 [2, 5] [nM]	GI50 ([3]; 3-day treatment, CellTiterGlo, read-out: Cell growth inhibition activity, HER2 - YVMA) [nM]	GI50 [2, 6] [nM]	GI50 [1, 7] [nM]	GI50 [3, 8] [nM]	SMILES
1500 to 5000	–	–	–	–	–	COC1CCN(C/C=C/C(=O)N2CCC(c3ccn4ncnc(Nc5ccc(Oc6ccc7c(c6)ncn7C)c(C)c5)c34)CC2)C1 (racemic) [Example 106, (E)-4-(3-methoxypyrrolidin-1-yl)-1-(4-(4-((3-methyl-4-((1-methyl-1H-benzo[d]imidazol-5-yl)oxy)phenyl)amino)pyrrolo[2,1-f][1,2,4]triazin-5-yl)piperidin-1-yl)but-2-en-1-one]
1500 to 5000	500 to 1500	1500 to 5000	–	–	–	C=CC(=O)N1C[C@H]2C[C@@H]1C[C@H]2c1ccn2ncnc(Nc3ccc(Oc4ccn5ncnc5c4)c(C)c3)c12 (relative stereo) [Example 104, Rel-1-1(1S,4S,5R)-5-{4-[(3-methyl-4-{[1,2,4]triazolo[1,5-a]pyridin-7-yloxy}phenyl)amino]pyrrolo[2,1-f][1,2,4]triazin-5-yl}-2-azabicyclo[2.2.1]heptan-2-yl]prop-2-en-1-one]
–	–	–	< 200	1500 to 5000	< 200	Cc1cc(Nc2ncnn3ccc(C4CCN(C(=O)/C=C/CN(C)C)C4)c23)ccc1Oc1ccn2ncnc2c1 (single isomer, unassigned) [Examples 99 and 100, first eluting isomer, (E)-1-(3-(4-((4-([1,2,4]triazolo[1,5-a]pyridin-7-yloxy)-3-methylphenyl)amino)pyrrolo[2,1-f][1,2,4]triazin-5-yl)pyrrolidin-1-yl)-4-(dimethylamino)but-2-en-1-one]
–	–	–	< 200	1500 to 5000	500 to 1500	Cc1cc(Nc2ncnn3ccc(C4CCN(C(=O)/C=C/CN(C)C)C4)c23)ccc1Oc1ccn2ncnc2c1 (single isomer, unassigned) [Examples 99 and 100, second eluting isomer, (E)-1-(3-(4-((4-([1,2,4]triazolo[1,5-a]pyridin-7-yloxy)-3-methylphenyl)amino)pyrrolo[2,1-f][1,2,4]triazin-5-yl)pyrrolidin-1-yl)-4-(dimethylamino)but-2-en-1-one]
–	–	–	< 200	1500 to 5000	500 to 1500	Cc1cc(Nc2ncnn3ccc(C4CCCN(C(=O)/C=C/CN(C)C)C4)c23)ccc1Oc1ccn2ncnc2c1 (single isomer, unassigned) [Examples 107 and 108, first eluting isomer, (E)-1-(3-(4-((4-([1,2,4]triazolo[1,5-a]pyridin-7-yloxy)-3-methylphenyl)amino)pyrrolo[2,1-f][1,2,4]triazin-5-yl)piperidin-1-yl)-4-(dimethylamino)but-2-en-1-one]
–	–	–	500 to 1500	1500 to 5000	1500 to 5000	Cc1cc(Nc2ncnn3ccc(C4CCCN(C(=O)/C=C/CN(C)C)C4)c23)ccc1Oc1ccn2ncnc2c1 (single isomer, unassigned) [Examples 107 and 108, second eluting isomer, (E)-1-(3-(4-((4-([1,2,4]triazolo[1,5-a]pyridin-7-yloxy)-3-methylphenyl)amino)pyrrolo[2,1-f][1,2,4]triazin-5-yl)piperidin-1-yl)-4-(dimethylamino)but-2-en-1-one]
–	–	–	< 200	1500 to 5000	< 200	Cc1cc(Nc2ncnn3ccc(C4CCCN(C(=O)/C=C/CN(C)C)CC4)c23)ccc1Oc1ccn2ncnc2c1 (single isomer, unassigned) [Examples 109 and 110, first eluting isomer, (E)-1-(4-(4-((4-([1,2,4]triazolo[1,5-a]pyridin-7-yloxy)-3-methylphenyl)amino)pyrrolo[2,1-f][1,2,4]triazin-5-yl)azepan-1-yl)-4-(dimethylamino)but-2-en-1-one]
–	–	–	< 200	1500 to 5000	< 200	C=CC(=O)N1CCCC(c2ccn3ncnc(Nc4ccc(Oc5ccn6ncnc6c5)c(C)c4)c23)CC1 (single isomer, unassigned) [Examples 111 and 112, first eluting isomer, 1-(4-(4-((4-([1,2,4]triazolo[1,5-a]pyridin-7-yloxy)-3-methylphenyl)amino)pyrrolo-[2,1-f][1,2,4]triazin-5-yl)azepan-1-yl)prop-2-en-1-one]
–	–	–	–	1500 to 5000	–	C=CC(=O)N1CCCC(c2ccn3ncnc(Nc4ccc(Oc5ccn6ncnc6c5)c(C)c4)c23)CC1 (single isomer, unassigned) [Examples 111 and 112, second eluting isomer, 1-(4-(4-((4-([1,2,4]triazolo[1,5-a]pyridin-7-yloxy)-3-methylphenyl)amino)pyrrolo-[2,1-f][1,2,4]triazin-5-yl)azepan-1-yl)prop-2-en-1-one]
–	–	–	< 200	500 to 1500	< 200	Cc1cc(Nc2ncnn3ccc(C4CC5CCC(C4)N5C(=O)/C=C/CN(C)C)c23)ccc1Oc1ccn2ncnc2c1 (single isomer, unassigned) [Examples 122 and 123, first eluting isomer, (E)-1-(−3-(4-((4-([1,2,4]triazolo[1,5-a]pyridin-7-yloxy)-3-methylphenyl)amino)pyrrolo[2,1-f][1,2,4]triazin-5-yl)-8-azabicyclo[3.2.1]octan-8-yl)-4-(dimethylamino)but-2-en-1-one]
–	–	–	< 200	1500 to 5000	200 to 500	Cc1cc(Nc2ncnn3ccc(C4CC5CCC(C4)N5C(=O)/C=C/CN(C)C)c23)ccc1Oc1ccn2ncnc2c1 (single isomer, unassigned) [Examples 122 and 123, second eluting isomer, (E)-1-(3-(4-((4-([1,2,4]triazolo[1,5-a]pyridin-7-yloxy)-3-methylphenyl)amino)pyrrolo[2,1-f][1,2,4]triazin-5-yl)-8-azabicyclo[3.2.1]octan-8-yl)-4-(dimethylamino)but-2-en-1-one]
–	–	–	< 200	1500 to 5000	200 to 500	C=C(CN(C)C)C(=O)N1C2CCC1CC(c1ccn3ncnc(Nc4ccc(Oc5ccn6ncnc6c5)c(C)c4)c13)C2 (single isomer, unassigned) [Examples 126 and 127, first eluting isomer, 1-(3-(4-((4-([1,2,4]triazolo[1,5-a]pyridin-7-yloxy)-3-methylphenyl)amino)pyrrolo[2,1-f][1,2,4]triazin-5-yl)-8-azabicyclo[3.2.1]octan-8-yl)-2-((dimethylamino)methyl)prop-2-en-1-one]
–	–	–	200 to 500	1500 to 5000	500 to 1500	C=C(CN(C)C)C(=O)N1C2CCC1CC(c1ccn3ncnc(Nc4ccc(Oc5ccn6ncnc6c5)c(C)c4)c13)C2 (single isomer, unassigned) [Examples 126 and 127, second eluting isomer, 1-(3-(4-((4-([1,2,4]triazolo[1,5-a]pyridin-7-yloxy)-3-methylphenyl)amino)pyrrolo[2,1-f][1,2,4]triazin-5-yl)-8-azabicyclo[3.2.1]octan-8-yl)-2-((dimethylamino)methyl)prop-2-en-1-one]
–	–	–	< 200	1500 to 5000	< 200	C=C(CN(C)C)C(=O)N1CC2CCC1CC2c1ccn2ncnc(Nc3ccc(Oc4ccn5ncnc5c4)c(C)c3)c12 (single isomer, unassigned) [Examples 135 and 136, first eluting isomer, 1-(5-(4-((4-([1,2,4]triazolo[1,5-a]pyridin-7-yloxy)-3-methylphenyl)amino)pyrrolo[2,1-f][1,2,4]triazin-5-yl)-2-azabicyclo[2.2.2]octan-2-yl)-2-((dimethylamino)methyl)prop-2-en-1-one]
–	–	–	< 200	< 200	200 to 500	C=C(CN(C)C)C(=O)N1CC2CCC1CC2c1ccn2ncnc(Nc3ccc(Oc4ccn5ncnc5c4)c(C)c3)c12 (single isomer, unassigned) [Examples 135 and 136, second eluting isomer, 1-(5-(4-((4-([1,2,4]triazolo[1,5-a]pyridin-7-yloxy)-3-methylphenyl)amino)pyrrolo[2,1-f][1,2,4]triazin-5-yl)-2-azabicyclo[2.2.2]octan-2-yl)-2-((dimethylamino)methyl)prop-2-en-1-one]
1500 to 5000	–	–	–	–	–	Cc1cc(Nc2ncnn3ccc(C4CCN(C(=O)/C=C/CN(C)C)CC4)c23)ccc1Oc1ccn2ncnc2c1 [Example 21, (E)-1-(4-(4-((4-([1,2,4]triazolo[1,5-a]pyridin-7-yloxy)-3-methylphenyl)amino)pyrrolo[2,1-f][1,2,4]triazin-5-yl)piperidin-1-yl)-4-(dimethylamino)but-2-en-1-one]
1500 to 5000	< 200	–	–	–	–	COC1CN(C/C=C/C(=O)N2CC(c3ccn4ncnc(Nc5ccc(Oc6ccn7ncnc7c6)c(C)c5)c34)C2)C1 [Example 39, (E)-1-(3-(4-((4-([1,2,4]triazolo[1,5-a]pyridin-7-yloxy)-3-methylphenyl)amino)pyrrolo[2,1-f][1,2,4]triazin-5-yl)azetidin-1-yl)-4-(3-methoxyazetidin-1-yl)but-2-en-1-one]

SMILES	GI50 [1, 4] [nM]	GI50 [2, 5] [nM]	GI50 ([3]; 3-day treatment, CellTiterGlo, read-out: Cell growth inhibition activity, HER2 - YVMA) [nM]	GI50 [2, 6] [nM]	GI50 [1, 7] [nM]	GI50 [3, 8] [nM]
C=CC(=O)N1C2CCC1CC(c1ccn3ncnc(Nc4ccc(Oc5ccn6ncnc6c5)c(C)c4)c13)C2 (single isomer, unassigned) [Examples 124 and 125, first eluting isomer, 1-(3-(4-((4-([1,2,4]triazolo[1,5-a]pyridin-7-yloxy)-3-methylphenyl)amino)pyrrolo[2,1-f][1,2,4]triazin-5-yl)-8-azabicyclo[3.2.1]octan-8-yl)prop-2-en-1-one]	–	–	–	< 200	< 200	< 200
Cc1cc(Nc2ncnn3ccc(C(=O)NCCCN(C)C)c23)ccc1Oc1ccn2ncnc2c1 [Example 179, 4-((4-([1,2,4]triazolo[1,5-a]pyridin-7-yloxy)-3-methylphenyl)amino)-N-(3-(dimethylamino)-propyl)pyrrolo[2,1-f][1,2,4]triazine-5-carboxamide hydrochloride]	> 5000	200 to 500	–	–	–	–
